{"source": "patent US10730851B2", "about": "“Polymorph of triaryldimethylpiperazine dihydrochloride and preparation method and application thereof” (priority 2016, dated 2020)", "key": {"[1]": {"experiment": "Dynamic solubility test in water, SGF, FeSSIF, FaSSIF", "format": "physicochemical", "settings": "for pH in clear solution: dihydrochloride", "experimental": "The dynamic solubility of a free base, polymorph forms B, P, F, J and O in water or a biological medium such as Stimulated Gastric Fluid (SGF), Fed State Simulated Intestinal Fluid (FeSSIF) or Fasted State Simulated Intestinal Fluid (FaSSIF) is determined.\n0.2 g sodium chloride and 0.1 g Triton X-100 is weighed and placed into a 100 mL volumetric flask. Purified water is added to dissolve. A stir is performed until the solid is completely dissolved. About 135 μL concentrated hydrochloric acid solution (37%, […]) is added, then the pH is adjusted to 1.8 with […] hydrochloric acid or 1 mmoL/L sodium hydroxide. Finally, the volume is fixed with purified water to obtain Stimulated Gastric Fluid (SGF) for later use.\nEach of 0.41 mL glacial acetic acid, 0.20 g sodium hydroxide and 0.59 g sodium chloride is weighed and placed to a 50 mL volumetric flask. About 48 mL purified water is added to dissolve, the pH is adjusted to 5.0 with 1 mmoL/L hydrochloric acid or 1 mmoL/L sodium hydroxide, and the volume is fixed with purified water. Then 0.56 g of Simulated Intestinal Fluid powder (SIF powder for short, which is composed of […] with a molar ratio of 4:1) is added, stirred and ultrasonically dissolved to obtain Fed State Simulated Intestinal Fluid (FeSSIF) for later use.\nEach of 0.17 g of anhydrous sodium dihydrogen phosphate (NaH2PO4), 0.021 g of sodium hydroxide and 0.31 g of sodium chloride is weighed and placed into a 50 mL volumetric flask. About 48 mL of purified water is added to dissolve, the pH is adjusted to 6.5 with 1 mmoL/L hydrochloric acid or 1 mmoL/L sodium hydroxide, and the volume is fixed with purified water. 0.11 g of SIF powder is added, stirred and ultrasonically dissolved to obtain Fasted State Simulated Intestinal Fluid (FaSSIF) for later use.\nEach 30 mg of the free base, and polymorph forms B, P, F, J and O are weighed. 3 mL of purified water, Stimulated Gastric Fluid (SGF), Fed State Simulated Intestinal Fluid (FeSSIF) or Fasted State Simulated Intestinal Fluid (FaSSIF)) is added and oscillated at room temperature. 0.6 mL of suspension is taken each time at a set time point, filtered and separated with a 0.45 μm nylon filter membrane, then XRPD characterization is performed on the solid sample, and the concentration in the clear solution is measured by HPLC."}, "SPF-grade SD rats": {"tested_on": "SPF-grade SD rats", "experiment": "Forced swimming test", "format": "in vivo", "settings": "rats; dihydrochloride", "experimental": "Forced swimming test is used to test the antidepressant effects of polymorph forms P, F, O, B and J.\nthe swimming test equipment is a transparent glass round cylinder with a height of 46 cm and an inner diameter of 20 cm, the test water temperature is 23° C.˜25° C., the test water depth is 30 cm, and each cylinder is used only once.\n(§1) 300 mg of a polymorph form P is weighed with an electronic balance, and the polymorph form P is dissolved with 0.9% normal saline, and finally the volume is fixed to 100 mL with 0.9% normal saline, at this time, the concentration of dihydrochloride in the experimental reagent is 3 mg/mL for later use.\nas §1, with “600” for “300”, “6” for “3”\n400 mg of desipramine (DMI) is weighed with an electronic balance, DMI is dissolved with 0.9% normal saline, and then the volume is fixed to 100 mL with 0.9% normal saline for later use.\nForty SPF-grade SD rats are prepared and randomly divided into 4 groups, namely vehicle control group, positive control group, experimental group 1 and experimental group 2, with 10 rats in each group. The day before the test, the rats were placed in water for 15 min to pre-swim for 15 min in advance to adapt to the swimming test environment, then taken out and dried, placed in the cage under an infrared lamp for 15 min and then placed in the original cage. After 24 h, a formal swimming test is conducted, that is, the rats are put into water again after 24 h, and the rats are continuously observed for 5 min. The swimming process are needed to be photographed. The drug is administered during two swimming sessions.\nThe positive control group containing DMI is administered three times, at 23.5 h, 5 h and 1 h before the formal swimming test respectively. Vehicle control group, experimental group 1 and experimental group 2 are each administered only once and subcutaneously within 1 h.\nThe behaviors of the rats are scored by the scorer every 5 seconds after recording the experiment.\n1) Static—when the rat floats on the water surface without struggling and moves only to keep its head above the water surface, the rat is evaluated as static;\n2) Swimming—if the rats have obvious swimming behaviors, not only to keep their heads above the water surface, or to travel around in a round cylinder, they are evaluated as swimming;\n3) Wall climbing—the rats' front paws have obvious behavior of entering and leaving the water surface, usually, rats are evaluated as wall climbing in front of the round cylinder wall.\nAll behavioral are scored by a single person. To avoid bias of observation, the scorer only observed and scored without knowing the administration situations. Then multiple test fragments are randomly selected, and the scorer will score the second round to determine the accuracy of observation. The test video is scored again by the second scorer to determine the accuracy between scorers. The second scorer are also required to observe without knowing the drug administration. Finally, in order to determine the effectiveness of the method, the first scorer scored again and recorded the duration of various behaviors with a stopwatch.\nSPSSwin11.0 software is used for variance analysis. One-way variance analysis is used for homogeneity of variance, and Dunnett test is used for heterogeneity of variance."}, "Rough solubility test": {"experiment": "Rough solubility test", "format": "physicochemical", "settings": "water, thermodynamic from solid", "experimental": "2.0 mg of a free base and 2.0 mg of polymorph forms B, F, P, J and O are respectively taken and placed in 3.0 mL glass bottles. Then the solvent methanol is added step by step, and ultrasound is performed to observe whether the sample is completely dissolved. If the sample is still not completely dissolved after 2.0 mL of solvent is added, the test is stopped to measure the rough solubility of the free base, polymorph forms B, F, P, J and O in methanol respectively.\nUsing the same method, the rough solubility of the free base, polymorph forms B, P, F, J and O in other organic solvents or water listed in Table 6 are determined respectively."}, "[2]": {"experiment": "Dynamic moisture adsorption", "format": "physicochemical"}}, "note": "Where a name gives a salt, the structure may show the parent alone. Read-outs that look alike come from different tables or passages of the source."}
{"smiles": "CC1CCN(C(=O)c2ccc([C@H](c3cccc(O)c3)N3C[C@@H](C)N(Cc4cccc(F)c4)C[C@@H]3C)cc2)CC1", "note": "[Polymorph form B, (4-((R)-((2S,5R)-4-(3-fluorobenzyl)-(2,5-dimethylpiperazine-1-yl)(3-hydroxyphenyl)methyl)phenyl)(4-methylpiperidine-1-yl)methanone dihydrochloride]", "values": [{"measurement": "solubility compared with the free base", "setting": "[1]", "value": "significantly improved"}, {"measurement": "pH in clear solution", "setting": "[1]; FaSSIF, Time 1", "value": 2.5}, {"measurement": "pH in clear solution", "setting": "[1]; FaSSIF, Time 2", "value": 2.6}, {"measurement": "pH in clear solution", "setting": "[1]; FaSSIF, Time 4", "value": 2.5}, {"measurement": "pH in clear solution", "setting": "[1]; FaSSIF, Time 24", "value": 2.3}, {"measurement": "pH in clear solution", "setting": "[1]; FeSSIF, Time 1", "value": 4.8}, {"measurement": "pH in clear solution", "setting": "[1]; FeSSIF, Time 2", "value": 4.8}, {"measurement": "pH in clear solution", "setting": "[1]; FeSSIF, Time 4", "value": 4.8}, {"measurement": "pH in clear solution", "setting": "[1]; FeSSIF, Time 24", "value": 4.6}, {"measurement": "pH in clear solution", "setting": "[1]; SGF, Time 1", "value": 1.5}, {"measurement": "pH in clear solution", "setting": "[1]; SGF, Time 2", "value": 1.5}, {"measurement": "pH in clear solution", "setting": "[1]; SGF, Time 4", "value": 1.5}, {"measurement": "pH in clear solution", "setting": "[1]; SGF, Time 24", "value": 1.5}, {"measurement": "pH in clear solution", "setting": "[1]; Water, Time 1", "value": 1.8}, {"measurement": "pH in clear solution", "setting": "[1]; Water, Time 2", "value": 1.8}, {"measurement": "pH in clear solution", "setting": "[1]; Water, Time 4", "value": 1.8}, {"measurement": "pH in clear solution", "setting": "[1]; Water, Time 24", "value": 1.7}, {"measurement": "solubility compared with the free base", "setting": "[1]; pH 1.8", "value": "close to or slightly improved"}, {"measurement": "antidepressant effect in forced swimming test (in words)", "setting": "SPF-grade SD rats", "value": "effectively reduce the static times and duration of forced swimming in rats"}, {"measurement": "Solubility", "setting": "Rough solubility test", "value": "6400 to 7200", "unit": "µg/mL"}, {"measurement": "Crystal form change under dynamic moisture adsorption", "setting": "[2]", "value": "change into amorphous"}]}
